Reference: patent US20220241376A1, “METHOD FOR DECREASING ADVERSE-EFFECTS OF INTERFERON” (ENYO PHARMA, priority 2019, published 2022)

System: patients chronically infected with HBV
Assay: 4-week clinical treatment combining weekly sub-cutaneous pegylated IFNα2a (PEG-IFN) with daily oral EYP001a or placebo: treatment emergent adverse events
Details: compared with Placebo + IFN; significant differences (Table 2)

SMILES: O=C(O)c1cc2c(Cl)c(N3CCN(S(=O)(=O)c4c(Cl)cccc4Cl)CC3)ccc2o1 [EYP001a]
- frequency of flu-like AE when IFN treatment was combined with EYP001: lower up to three times less
